Measurements reported in patent publication US20260035365A1, “1H-PYRROLO[3,2-B]PYRIDINE DERIVATIVES AS IRREVERSIBLE INHIBITORS OF MUTANT EGFR FOR THE TREATMENT OF CANCER” (Bayer Aktiengesellschaft, priority 2022, published 2026).

How the values were obtained:
[1] = system: BA/F3 (insSVD) cells; test: Ba/F3 cell survival assay (Cell Titer-Glo), EGFR-insSVD; assay type: cell-based; settings: Mus musculus, BaF3, 48 h, without IL-3, with EGF
Description: 293T cells from ATCC were transfected with pBABEpuro expression constructs for WT EGFR or EGFR-insSVD, or EGFR-insSVD T790M, and pCL-Eco packaging vector using Fugene-6 transfection reagent from Promega. Plates were incubated at 37° C. for 48 h. Retrovirus was harvested by filtering the media supernatant through a 0.45 μm filter.
Ba/F3 cells purchased from DSMZ were grown in RPMI+10% FBS+10 ng/mL IL-3 and infected with filtered retroviral supernatant at a 1:2 dilution. Polybrene was added to a concentration of 8 μg/mL, plates were spun for 90 min, and incubated for 16 h at 37° C. 2 μg/mL puromycin was added to the infected cells 24 h after infection and cells were continually grown in the presence of puromycin and 10 ng/mL IL-3. Following stably expressing Ba/F3 cell lines were generated: Ba/F3-EGFR-WT, Ba/F3-EGFR-insSVD, Ba/F3-EGFR-insSVD T790M, (Ba/F3-vector-control).
For cell survival assays, Ba/F3 cells were grown to a density of 1-2 million cells per mL, spun down and resuspended in media without IL-3, and replated at a concentration of 200,000-500,000 cells per mL. The cells ectopically expressing WT EGFR, EGFR-insSVD, or EGFR-insSVD T790M were plated with 10 ng/mL Millipore Culture grade EGF. The cells ectopically expressing pBABEpuro empty vector were plated with 10 ng/mL IL-3.
2 days later, cells were plated in 50 μL in a 384 well plate at a concentration of 4000 cells per well for cells assayed in the absence of IL-3 and 2000 cells per well for cells assayed in the presence of IL-3. 100 nL of compound was added to each well using a 100 nL pin head, and plates were incubated at 37° C. for 48 h.
Cell viability was measured by adding 20 μL of Cell Titer-Glo Luminescent Cell Viability Reagent diluted 1:3 in PBS. Plates were sealed with Perkin Elmer Top-Seal, inverted several times to mix, and immediately centrifuged at 1000 rpm for 2 min. Plates were incubated in low light conditions for 8-10 min and luminescence was measured.

[2] = target: mutEGFR (D770_N771insNPG, T790); test: mutEGFR (D770_N771insNPG, T790) kinase assay; assay type: biochemical, human
Chain of mutEGFR (D770_N771insNPG, T790) (P00533 with tags, fused parts or gaps INS770NPG limits assumed): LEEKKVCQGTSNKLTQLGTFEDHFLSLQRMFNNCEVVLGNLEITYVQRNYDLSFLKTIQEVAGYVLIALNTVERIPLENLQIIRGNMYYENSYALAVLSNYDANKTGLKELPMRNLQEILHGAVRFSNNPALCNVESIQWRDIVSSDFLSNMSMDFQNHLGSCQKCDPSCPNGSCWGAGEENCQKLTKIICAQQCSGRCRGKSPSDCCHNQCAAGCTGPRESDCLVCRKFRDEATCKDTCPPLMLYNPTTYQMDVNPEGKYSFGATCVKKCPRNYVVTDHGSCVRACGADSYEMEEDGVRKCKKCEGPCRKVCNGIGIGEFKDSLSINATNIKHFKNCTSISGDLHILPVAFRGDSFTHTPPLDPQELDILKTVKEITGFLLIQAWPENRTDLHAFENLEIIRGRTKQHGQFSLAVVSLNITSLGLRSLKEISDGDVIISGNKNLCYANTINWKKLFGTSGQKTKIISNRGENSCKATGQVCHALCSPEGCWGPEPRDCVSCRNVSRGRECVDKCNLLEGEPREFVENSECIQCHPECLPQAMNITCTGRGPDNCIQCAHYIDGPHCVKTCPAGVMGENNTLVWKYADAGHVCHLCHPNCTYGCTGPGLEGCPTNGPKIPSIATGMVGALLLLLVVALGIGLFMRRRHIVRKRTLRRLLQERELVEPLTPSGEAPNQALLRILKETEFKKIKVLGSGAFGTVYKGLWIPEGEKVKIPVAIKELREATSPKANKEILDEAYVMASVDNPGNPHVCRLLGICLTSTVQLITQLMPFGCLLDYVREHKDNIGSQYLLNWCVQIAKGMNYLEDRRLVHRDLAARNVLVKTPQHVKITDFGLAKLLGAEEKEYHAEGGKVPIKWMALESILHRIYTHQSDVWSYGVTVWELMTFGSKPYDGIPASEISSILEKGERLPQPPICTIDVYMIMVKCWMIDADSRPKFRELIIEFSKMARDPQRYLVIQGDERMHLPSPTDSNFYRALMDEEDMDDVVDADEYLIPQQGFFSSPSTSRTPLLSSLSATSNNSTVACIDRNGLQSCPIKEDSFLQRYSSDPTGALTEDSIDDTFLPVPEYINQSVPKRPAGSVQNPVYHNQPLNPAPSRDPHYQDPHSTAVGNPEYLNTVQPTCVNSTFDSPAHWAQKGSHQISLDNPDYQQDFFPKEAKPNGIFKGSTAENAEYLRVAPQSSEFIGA

[3] = target: mutEGFR (D770_N771insSVD) (Homo sapiens, UniProt P00533, INS767SVD); test: Exon20-mutant-EGFR (D770_N771insSVD) TR-FRET kinase assay; assay type: biochemical; settings: 2 mM ATP, 15 min preincubation
Chain of mutEGFR (D770_N771insSVD) (P00533 with tags, fused parts or gaps INS767SVD limits assumed): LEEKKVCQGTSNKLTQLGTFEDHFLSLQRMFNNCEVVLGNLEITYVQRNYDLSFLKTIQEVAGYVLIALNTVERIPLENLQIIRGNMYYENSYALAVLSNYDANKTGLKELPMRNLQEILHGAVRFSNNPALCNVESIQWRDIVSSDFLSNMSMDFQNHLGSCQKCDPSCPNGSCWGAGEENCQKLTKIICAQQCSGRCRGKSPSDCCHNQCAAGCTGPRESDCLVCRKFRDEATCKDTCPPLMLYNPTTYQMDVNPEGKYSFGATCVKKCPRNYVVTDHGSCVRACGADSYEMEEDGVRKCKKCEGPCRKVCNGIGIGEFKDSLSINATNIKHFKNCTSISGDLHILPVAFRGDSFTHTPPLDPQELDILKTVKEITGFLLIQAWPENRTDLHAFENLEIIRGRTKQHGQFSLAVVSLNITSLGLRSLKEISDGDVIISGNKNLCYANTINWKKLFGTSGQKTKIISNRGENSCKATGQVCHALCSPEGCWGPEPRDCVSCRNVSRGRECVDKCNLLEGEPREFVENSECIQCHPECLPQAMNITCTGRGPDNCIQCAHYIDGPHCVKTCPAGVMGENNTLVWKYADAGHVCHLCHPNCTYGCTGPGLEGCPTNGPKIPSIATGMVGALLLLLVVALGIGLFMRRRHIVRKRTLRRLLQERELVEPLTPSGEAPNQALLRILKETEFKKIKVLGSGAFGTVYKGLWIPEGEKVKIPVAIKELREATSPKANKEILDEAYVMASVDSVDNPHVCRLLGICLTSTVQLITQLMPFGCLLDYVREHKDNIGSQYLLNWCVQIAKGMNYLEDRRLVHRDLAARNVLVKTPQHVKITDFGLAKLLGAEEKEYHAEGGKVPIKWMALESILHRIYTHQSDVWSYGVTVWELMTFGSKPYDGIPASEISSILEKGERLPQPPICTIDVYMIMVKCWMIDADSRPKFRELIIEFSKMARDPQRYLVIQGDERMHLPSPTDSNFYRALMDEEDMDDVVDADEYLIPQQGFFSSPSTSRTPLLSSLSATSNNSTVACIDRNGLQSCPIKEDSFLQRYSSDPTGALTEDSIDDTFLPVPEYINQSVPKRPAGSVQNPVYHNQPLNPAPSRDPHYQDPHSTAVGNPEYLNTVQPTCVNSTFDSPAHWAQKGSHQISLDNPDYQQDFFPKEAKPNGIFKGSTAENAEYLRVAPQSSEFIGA
Source text: Inhibitory activity of compounds of the present invention against an Epidermal Growth Factor Receptor (EGFR) with an insertion of the amino acids sequence SVD between D770 and N771 (SEQ ID No. 5) was quantified employing the TR-FRET based kinase activity assay as described in the following paragraphs.
A recombinant fusion protein of N-terminal Glutathion-S-Transferase (GST) and a fragment of human EGFR variant (amino acids R669 to A1210 with insertion of the amino acids sequence SVD between D770 and N771 (SEQ ID No. 5) (“EGFR ins SVD”), expressed in Sf9 insect cells and purified via affinity chromatography using Glutathion Sepharose as described above, was used as a kinase. As substrate for the kinase reaction the biotinylated peptide biotin-Ahx-AEEEEYFELVAKKK (C-terminus in amide form) (SEQ ID No. 6) was used which can be purchased e.g. form the company Biosynthan GmbH (Berlin-Buch, Germany).
For the assay 50 nl of a 100-fold concentrated solution of the test compound in DMSO was pipetted into either a black low volume 384 well microtiter plate or a black 1536 well microtiter plate (both Greiner Bio-One, Frickenhausen, Germany), 2 μl of a solution of EGFR in aqueous assay buffer [50 mM Hepes pH 7.0, 10 mM MgCl2, 1 mM dithiothreitol, 0.5 mM EGTA, 0.3 mM activated sodium ortho-vanadate, 0.005% (w/v) bovine serum albumin, 0.005% (v/v) Tween-20] were added and the mixture was incubated for 15 min at 22° C. to allow pre binding of the test compounds to the enzyme before the start of the kinase reaction. […] The concentration of EGFR was adjusted depending of the activity of the enzyme lot and was chosen appropriate to have the assay in the linear range, typical concentration was 15 pg/μl. The reaction was stopped by the addition of 3 μl of a solution of HTRF detection reagents (83.3 nM streptavidine-XL665 [Cisbio Bioassays, Codolet, France] and 1.67 nM PT66-Tb-Cryptate, a terbium-cryptate labelled anti-phospho-tyrosine antibody from Cisbio Bioassays [instead of the PT66 Tb cryptate PT66 Eu Chelate from Perkin Elmer can also be used]) in an aqueous EDTA-solution (133.3 mM EDTA, 0.2% (w/v) bovine serum albumin in 50 mM HEPES pH 7.5).
The resulting mixture was incubated 1 h at 22° C. to allow the binding of the biotinylated phosphorylated peptide to the streptavidine-XL665 and the PT66-Tb-Cryptate. Subsequently, the amount of phosphorylated substrate was evaluated by measurement of the resonance energy transfer from the PT66-Tb-Cryptate to the streptavidine-XL665. Therefore, the fluorescence emissions at 620 nm and 665 nm after excitation at 337 nm were measured in a HTRF reader, e.g. a Pherastar (BMG Labtechnologies, Offenburg, Germany) or a Viewlux (Perkin-Elmer). The ratio of the emissions at 665 nm and at […] was taken as the measure for the amount of phosphorylated substrate. The data were normalised (enzyme reaction without inhibitor=0% inhibition, all other assay components but no enzyme=100% inhibition).

| Compound | IC50 [1] | IC50 [2] | IC50 [3] |
| --- | --- | --- | --- |
| C=CS(=O)(=O)N(C)CCOc1cnccc1-c1[nH]c2cccnc2c1-c1cccc(OC(F)(F)F)c1 [Example 74, N-methyl-N-{2-[(4-{3-[3-(trifluoromethoxy)phenyl]-1H-pyrrolo[3,2-b]pyridin-2-yl}pyridin-3-yl)oxy]ethyl}ethenesulfonamide] | 964 nM | 58.8 nM | 11.2 nM |
| C#CC(=O)N1CCC(Oc2cnccc2-c2[nH]c3cccnc3c2-c2cccc(Cl)c2)C1 (racemic) [Example 120, 1-[(3RS)-3-({4-[3-(3-chlorophenyl)-1H-pyrrolo[3,2-b]pyridin-2-yl]pyridin-3-yl}oxy)pyrrolidin-1-yl]prop-2-yn-1-one] | 1190 nM | 98.7 nM | 38.5 nM |
| C=CC(=O)N(C)CCOc1cnccc1-c1[nH]c2cccnc2c1-c1cccc(OC)c1 [Example 54, N-[2-({4-[3-(3-methoxyphenyl)-1H-pyrrolo[3,2-b]pyridin-2-yl]pyridin-3-yl}oxy)ethyl]-N-methylprop-2-enamide] | 3960 nM | 240 nM | 118 nM |
| C=CS(=O)(=O)N(C)CCOc1cnccc1-c1[nH]c2cccnc2c1-c1ccccc1CC [Example 72, N-[2-({4-[3-(2-ethylphenyl)-1H-pyrrolo[3,2-b]pyridin-2-yl]pyridin-3-yl}oxy)ethyl]-N-methylethenesulfonamide] | 463 nM | 78.8 nM | 5.82 nM |
| C#CC(=O)N1CCC(Oc2cnccc2-c2[nH]c3cccnc3c2-c2cc(C)ccc2F)C1 (racemic) [Example 125, 1-[(3RS)-3-({4-[3-(2-fluoro-5-methylphenyl)-1H-pyrrolo[3,2-b]pyridin-2-yl]pyridin-3-yl}oxy)pyrrolidin-1-yl]prop-2-yn-1-one] | 1030 nM | 219 nM | 80.8 nM |
| C=CC(=O)N(C)CCOc1cnccc1-c1[nH]c2cccnc2c1-c1cc(F)cc(F)c1 [Example 52, N-[2-({4-[3-(3,5-difluorophenyl)-1H-pyrrolo[3,2-b]pyridin-2-yl]pyridin-3-yl}oxy)ethyl]-N-methylprop-2-enamide] | 3100 nM | 204 nM | 77.1 nM |
| C=CC(=O)N1CCC(Oc2cnccc2-c2[nH]c3cccnc3c2-c2ccccc2)C1 (racemic) [Example 116, 1-[(3RS)-3-{[4-(3-phenyl-1H-pyrrolo[3,2-b]pyridin-2-yl)pyridin-3-yl]oxy}pyrrolidin-1-yl]prop-2-en-1-one] | 1520 nM | 215 nM | 52.4 nM |
| C=CS(=O)(=O)N(C)CCOc1cnccc1-c1[nH]c2cccnc2c1-c1ccc2ccsc2c1 [Example 62, N-[2-({4-[3-(1-benzothiophen-6-yl)-1H-pyrrolo[3,2-b]pyridin-2-yl]pyridin-3-yl}oxy)ethyl]-N-methylethenesulfonamide] | 326 nM | 3.3 nM | 1.14 nM |
| C=CC(=O)N1CCCC[C@H]1COc1cnccc1-c1[nH]c2cccnc2c1-c1ccccc1 [Example 130, 1-[(2S)-2-({[4-(3-phenyl-1H-pyrrolo[3,2-b]pyridin-2-yl)pyridin-3-yl]oxy}methyl)piperidin-1-yl]prop-2-en-1-one] | 1620 nM | – | 337 nM |
| CN(C)C/C=C/C(=O)N1CCC[C@H]1COc1cnccc1-c1[nH]c2cccnc2c1-c1ccc(F)c(OC(F)F)c1 [Example 104, (2E)-1-[(2S)-2-{[(4-{3-[3-(difluoromethoxy)-4-fluorophenyl]-1H-pyrrolo[3,2-b]pyridin-2-yl}pyridin-3-yl)oxy]methyl}pyrrolidin-1-yl]-4-(dimethylamino)but-2-en-1-one] | 1380 nM | 149 nM | 36.9 nM |
| C=CC(=O)N1CCC[C@H]1COc1cnccc1-c1[nH]c2cccnc2c1-c1ccc(F)c(OC(F)(F)F)c1 [Example 106, 1-[(2S)-2-{[(4-{3-[4-fluoro-3-(trifluoromethoxy)phenyl]-1H-pyrrolo[3,2-b]pyridin-2-yl}pyridin-3-yl)oxy]methyl}pyrrolidin-1-yl]prop-2-en-1-one] | 1630 nM | 77.4 nM | 13.3 nM |
| C=CC(=O)N1CCOCC1COc1cnccc1-c1[nH]c2cccnc2c1-c1ccccc1 (centres unmarked) [Example 149, 1-[3-({[4-(3-phenyl-1H-pyrrolo[3,2-b]pyridin-2-yl)pyridin-3-yl]oxy}methyl)morpholin-4-yl]prop-2-en-1-one] | 1290 nM | 17700 nM | 775 nM |
| C=CC(=O)N(C)CCOc1cnccc1-c1[nH]c2cccnc2c1-c1cc(Cl)ccc1Cl [Example 57, N-[2-({4-[3-(2,5-dichlorophenyl)-1H-pyrrolo[3,2-b]pyridin-2-yl]pyridin-3-yl}oxy)ethyl]-N-methylprop-2-enamide] | 4590 nM | 450 nM | 156 nM |
| C=CS(=O)(=O)N1CCC[C@H]1COc1cnccc1-c1[nH]c2cccnc2c1-c1cc(C(F)(F)F)ccc1F [Example 101, 2-(3-{[(2S)-1-(ethenesulfonyl)pyrrolidin-2-yl]methoxy}pyridin-4-yl)-3-[2-fluoro-5-(trifluoromethyl)phenyl]-1H-pyrrolo[3,2-b]pyridine] | 957 nM | 89.8 nM | 52.2 nM |
| C=CS(=O)(=O)N1CC[C@@H]1COc1cnccc1-c1[nH]c2cccnc2c1-c1ccccc1 (single isomer, unassigned) [Example 142] | 16 nM | 0.262 nM | < 0.0725 nM |
| C=CC(=O)N(C)CCOc1cnccc1-c1[nH]c2cccnc2c1-c1cccc(C(F)(F)F)c1 [Example 49, N-methyl-N-{2-[(4-{3-[3-(trifluoromethyl)phenyl]-1H-pyrrolo[3,2-b]pyridin-2-yl}pyridin-3-yl)oxy]ethyl}prop-2-enamide] | 1930 nM | 151 nM | 57.4 nM |
| C#Cc1cccc(-c2c(-c3ccncc3OC[C@@H]3CCCN3C(=O)C=C)[nH]c3cccnc23)c1 [Example 102, 1-{(2S)-2-[({4-[3-(3-ethynylphenyl)-1H-pyrrolo[3,2-b]pyridin-2-yl]pyridin-3-yl}oxy)methyl]pyrrolidin-1-yl}prop-2-en-1-one] | 135 nM | 1.29 nM | 0.417 nM |
| C=CC(=O)N(C)CCOc1cnccc1-c1[nH]c2cccnc2c1-c1cc(C)cc(F)c1 [Example 50, N-[2-({4-[3-(3-fluoro-5-methylphenyl)-1H-pyrrolo[3,2-b]pyridin-2-yl]pyridin-3-yl}oxy)ethyl]-N-methylprop-2-enamide] | 1770 nM | 131 nM | 63.7 nM |
